Laboratory results from US12478628B2, “Germ cell nuclear factor ligands and methods of use thereof” (Saint Louis University, priority 2020, dated 2025).

How the values were obtained:
LRH-1 (NR5A2) LBD = biological target: T1, LRH-1 (NR5A2) LBD (Homo sapiens, UniProt O00482); assay: DSF specificity assay, LRH-1; format: binding
T1 construct: human LRH-1 (NR5A2) LBD (residues 291-541); hexahistidine tag with 3C protease site; made in house; host or cells: E. coli BL(21) DE3
Method: (§1) Protein Expression and Purification. Human GCNF (NR6A1) LBD (residues 248-480) and mutants F284A/F361A, human LRH-1 (NR5A2) LBD (residues 291-541), human RXRα LBD (residues 223-462), human COUP-TF I LBD (residues 184-410) and human SF-1 LBD (residues 219-461) were subcloned in pET45b(+) plasmid (Novagen) were expressed in E. coli BL(21) DE3 cells in terrific broth with 0.1 mg/mL ampicillin as 3C protease-cleavable hexahistidine-tagged fusion proteins. The bacterial culture was grown at 37° C. to an optical density of 0.8 to 1.0 at 600 nm. Protein expression was induced by adding 1 mM IPTG and was allowed to proceed for 14 h at 22° C. […]
(§2) DSF Assay. […] A total of 450 compounds (Life Chemicals) previously selected from a nuclear-receptor-biased library targeting REV-ERB were analyzed. Thermal stability was assessed on a Quantstudio 6 instrument (Biosystems) by ramping the temperature from 25° C. to 95° C. at 0.05° C./s and protein melt shifts were subsequently quantified by Boltzmann-derived melting temperature (Tm) using the Protein Thermal Shift (ThermoFisher) software. […]

[1] = biological target: T2, GCNF LBD with SMRT ID2 corepressor peptide (Homo sapiens, UniProt Q15406); assay: FP ligand titration assay, SMRT ID2 peptide recruitment; format: biochemical; settings: 20 μM GCNF LBD
T2 construct: Human GCNF (NR6A1) LBD (residues 248-480); made in house; host or cells: E. coli BL(21) DE3
T2 sequence (Q9Y618 2332-2354 partner limits assumed, one chain of several): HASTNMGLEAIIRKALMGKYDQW
Method: FP Assay. Fluorescence polarization (FP) assays were performed in triplicate on a 384-well Corning 3820 black opaque plate using a Biotek Synergy Neo2 HTS multimode microplate reader at excitation and emission wavelengths of 485 nm and 538 nm, respectively. Data were analyzed and plotted using GraphPad Prism as mean±SEM.
For the FP ligand titration assay, the aforementioned N-terminus fluorescein-tagged corepressor peptides were diluted to 500 nM from a 100 μM DMSO stock in the presence of 20 μM GCNF LBD and ligand concentration points 30, 20, 13, 9, 6, 4, 2.6, 1.7 and 0 μM in assay buffer containing 50 mM HEPES (pH 7.5), 50 mM KCl, 5 mM TCEP, 0.5 mM EDTA and 0.005% Tween20. The relative polarization was plotted against log of ligand concentration (μM) and the half maximal effective concentration (EC50) values were derived via sigmoidal fit.

SF-1 (NR5A1) LBD = biological target: T3, SF-1 (NR5A1) LBD (Homo sapiens, UniProt Q13285); assay: DSF specificity assay, SF-1; format: binding
T3 construct: human SF-1 LBD (residues 219-461); hexahistidine tag with 3C protease site; made in house; host or cells: E. coli BL(21) DE3
T3 sequence (Q13285 219-461): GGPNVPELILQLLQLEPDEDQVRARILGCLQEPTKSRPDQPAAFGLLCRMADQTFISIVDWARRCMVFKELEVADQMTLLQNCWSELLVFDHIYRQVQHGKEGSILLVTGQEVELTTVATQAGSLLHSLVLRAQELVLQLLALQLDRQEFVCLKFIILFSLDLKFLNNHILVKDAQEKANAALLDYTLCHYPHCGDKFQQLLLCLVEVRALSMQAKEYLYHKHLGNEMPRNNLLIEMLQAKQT
Method: as §1, §2

GCNF LBD = biological target: T4, GCNF LBD (Homo sapiens, UniProt Q15406); assay: Differential scanning fluorimetry (DSF) of GCNF LBD; format: binding; settings: 20 μM ligand; GCNF LBD Tm 41.9±0.6° C.; significance cutoff 2° C.; read-out: increase of melting temperature (ΔTm) of GCNF LBD
T4 construct: Human GCNF (NR6A1) LBD (residues 248-480); made in house; host or cells: E. coli BL(21) DE3
T4 sequence (Q15406 248-480): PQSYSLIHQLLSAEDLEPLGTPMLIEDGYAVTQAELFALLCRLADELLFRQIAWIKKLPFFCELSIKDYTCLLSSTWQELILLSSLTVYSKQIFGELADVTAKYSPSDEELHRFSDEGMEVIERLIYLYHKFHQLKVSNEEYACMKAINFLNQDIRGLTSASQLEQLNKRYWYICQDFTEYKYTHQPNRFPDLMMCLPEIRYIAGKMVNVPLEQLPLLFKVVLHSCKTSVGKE
Method: DSF Assay. GCNF LBD (5 μM) were mixed with 1× Sypro orange (Invitrogen) in DSF buffer (50 mM HEPES, 50 mM KCl, 5 mM TCEP, 0.5 mM EDTA, pH 7.5). Test compounds was added at 1:1 molar equivalence as protein or replaced with DMSO control. Ten microliters (10 μL)×5 replicates for each sample were plated on 384-well PCR microplate. No protein control and no ligand references were also run simultaneously in 5 replicates on the same plate. A total of 450 compounds (Life Chemicals) previously selected from a nuclear-receptor-biased library targeting REV-ERB were analyzed. Thermal stability was assessed on a Quantstudio 6 instrument (Biosystems) by ramping the temperature from 25° C. to 95° C. at 0.05° C./s and protein melt shifts were subsequently quantified by Boltzmann-derived melting temperature (Tm) using the Protein Thermal Shift (ThermoFisher) software. Positive hits were identified when a thermal shift (ΔTm) of at least 2° C. was observed.
For the DSF ligand titration assay, ligands 30, 34 and 80 were titrated against 5 μM GCNF LBD with a ligand concentration series of 30, 20, 13, 9, 6, 4, 2.6, 1.7 and 0 μM from a 20 mM DMSO stock solution. DSF assay and analysis was then performed as described above. All DSF data were reported as mean±SEM.

T1 sequence (O00482 291-541): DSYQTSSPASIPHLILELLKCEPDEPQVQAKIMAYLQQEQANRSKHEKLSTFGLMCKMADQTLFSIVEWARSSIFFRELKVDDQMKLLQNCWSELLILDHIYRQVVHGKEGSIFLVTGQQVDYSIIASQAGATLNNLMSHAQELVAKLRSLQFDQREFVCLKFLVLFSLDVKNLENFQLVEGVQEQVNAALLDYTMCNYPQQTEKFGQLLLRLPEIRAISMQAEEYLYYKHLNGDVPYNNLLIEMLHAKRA

change of Tm of LRH-1 LBD (LRH-1 (NR5A2) LBD) | change of Tm of SF-1 LBD (SF-1 (NR5A1) LBD) | ΔTm at 20 µM (GCNF LBD) | Structure (SMILES) | effect on recruitment of SMRT ID2 to GCNF [1]
did not significantly change | did not significantly change |  | Cc1ccc(-n2ncc3c(N4CCOCC4)nc(NCc4ccco4)nc32)cc1 [Ligand 34, N-[(furan-2-yl)methyl]-1-(4-methylphenyl)-4-(morpholin-4-yl)-1H-pyrazolo[3,4-d]pyrimidin-6-amine] | increased the recruitment
did not significantly change | did not significantly change | > 2 °C | O=C(Cn1cc(S(=O)(=O)c2ccccc2)c2ccccc21)N1CCc2ccccc21 [Ligand 80, 2-[3-(benzenesulfonyl)-1H-indol-1-yl]-1-(2,3-dihydro-1H-indol-1-yl)ethan-1-one] | but not ligand 80, increased the recruitment of SMRT ID2
